Laboratory results taken from patent US10472663B2, “Procedure for the rapid determination of bacterial susceptibility to antibiotics that inhibit protein synthesis” (ABM TECHNOLOGIES, LLC, priority 2015, dated 2019).

Assays:
Type in all cases: cell-based
Escherichia coli [1] = test: Variant Micromax assay of cell enlargement by low-dose mitomycin C after tobramycin (Example 8)
Procedure: As an example, two strains of Escherichia coli exponentially growing in Mueller-Hinton broth were incubated under four different conditions and then assayed. One strain was susceptible and the other resistant to the aminoglycoside tobramycin (an inhibitor of protein synthesis). For the purpose of rapidly distinguishing susceptible and non-susceptible strains to tobramycin each strain was incubated under four conditions.
A portion of each strain was incubated with tobramycin at 4 μg/ml for 90 minutes. As described previously, this dose is indicated by the CLSI as the breakpoint of susceptibility to tobramycin in the standard antibiogram based on microdilution. Another portion of both strains was incubated in Mitomycin C at 0.5 μg/ml for 60 minutes. Still another portion of each strain was incubated with tobramycin at 4 μg/ml for 30 minutes followed by mitomycin C at 0.5 μg/ml for 60 minutes, without removing the tobramycin. A final portion of both strains was not incubated with either antibiotic.
After the incubation, cells were processed using a variant Micromax technology to visualize any enlargement or not of the bacteria. Samples from cells from the culture were immersed in an agarose microgel on a slide, dried, stained with a highly sensitive fluorochrome for DNA like SYBR Gold and visualized under fluorescence microscopy to visualize cell shape and size. Images were similar those correspondent to the previous figure.

Escherichia coli [2] = test: Micromax assay of mitomycin C-induced DNA fragmentation after tobramycin (Example 2); details: for DNA fragmentation of nucleoids: tobramycin 4 μg/ml 30 min followed by mitomycin C 50 μg/ml 60 min
Procedure: FIGS. 7-9 depict a TG1 strain susceptible to the aminoglycoside tobramycin, an inhibitor of protein synthesis, and mitomycin C, an agent which induces DNA damage. The other strain illustrated in FIGS. 10-12 was a clinical isolate resistant to tobramycin.
One portion of both bacterial strains was incubated with tobramycin at 4 μg/ml for 90 min (FIGS. 7 and 10), a dosage indicated by the CLSI as the breakpoint of susceptibility to tobramycin in the standard antibiogram based on microdilution. Another portion of both strains was incubated with mitomycin C at 50 μg/ml for 60 min (FIGS. 8 and 11). Still another portion of both strains was incubated with tobramycin at 4 μg/ml for 30 min followed by mitomycin C at 50 μg/ml for 60 min, without removing the tobramycin (FIGS. 9 and 12). A final portion was left with no antibiotic.
After incubation, cells were processed using a variant of the Micromax technology to visualize nucleoids, i.e. bacterial chromosomal DNA, in all the cells of the population. Samples from cells from the culture are immersed in an agarose microgel on a slide and incubated with a specific lysing solution to remove the cell wall in all the cells and release in the microgel the nucleoids contained inside the bacteria. These are dried, stained with a highly sensitive fluorochrome for DNA like SYBR Gold and visualized under fluorescence microscopy, Nucleoids from E. coli obtained using the Micromax assay are represented in FIGS. 7-12, FIGS. 7-9 correspond to a strain susceptible to tobramycin (TG1) and FIGS. 10-12 to a strain resistant to tobramycin.

Escherichia coli [3] = test: Micromax assay of ciprofloxacin-induced DNA fragmentation after a protein synthesis inhibitor (Example 1); details: for DNA fragmentation of nucleoids: tobramycin 4 μg/ml 10 min followed by ciprofloxacin 1 μg/ml 30 min
Procedure: As an exemplification of the principals previously described, two strains of Escherichia coli exponentially growing in Mueller-Hinton broth were assayed (FIGS. 1-6). The first strain of Escherichia coli was a TG1 strain susceptible to both the aminoglycoside tobramycin (an inhibitor of protein synthesis) and the quinolone ciprofloxacin (an agent which induces DNA fragmentation by trapping of topoisomerases in DNA) (FIGS. 1-3). The second strain was a clinical isolate resistant to tobramycin and susceptible to ciprofloxacin (FIGS. 4-6). Four treatments were applied to each strain to rapidly distinguish the susceptible and the resistant strain to tobramycin.
One portion of both bacterial strains was incubated with tobramycin at 4 μg/ml for 40 minutes (FIGS. 1 and 4), a dosage indicated by the CLSI as the breakpoint of susceptibility to tobramycin in the standard antibiogram based on microdilution. Another portion of both strains was incubated with ciprofloxacin at 1 μg/ml for 30 min (FIGS. 2 and 5). Still another portion of both strains was incubated with tobramycin at 4 μg/ml for 10 min followed by ciprofloxacin at 1 μg/ml for 30 min, without removing the tobramycin (FIGS. 3 and 6). A final portion was left with no antibiotic.
After each incubation cells were processed using the variant of the Micromax technology to visualize the nucleoids, i.e. bacterial chromosomal DNA, in all the cells of the population. Cells from each culture were immersed in an agarose microgel on a slide and incubated with a specific lysing solution to remove the cell wall in all the cells and release in the microgel the nucleoids contained inside the bacteria. These are dried, stained with a high sensitive fluorochrome for DNA like SYBR Gold and visualized under fluorescence microscopy. FIGS. 1-6 depicts representative images captured under each of the conditions described below.
The above described methodology was employed to rapidly determine the susceptibility of 12 strains of E. coli to tobramycin. One portion of each bacterial strain was incubated with tobramycin at the susceptibility breakpoint dosage, 4 μg/ml, for 40 min. A portion of each strain was incubated with ciprofloxacin at 1 μg/ml for 30 min. Still another portion of each strain was incubated with tobramycin at 4 μg/ml for 10 min followed by ciprofloxacin at 1 μg/ml for 30 min, without removing the tobramycin. A final portion of each strain was left with no antibiotic. E. coli strains were identified as susceptible or not based on the levels of DNA fragmentation in the portion of each strain incubated with ciprofloxacin and the portion incubated with tobramycin and ciprofloxacin.
The principals exemplified in Example 1 were confirmed with the aminoglycoside amikacin. Briefly, a susceptible and resistant strain of E. coli were exposed to similar conditions to those described in Example 1, except that amikacin was utilized as the protein synthesis inhibiting antibiotic. Specifically, each was strain subjected to four treatments. One portion received no antibiotics, and another portion received only a quinolone, such as ciprofloxacin or norfloxacin to induce DNA fragmentation. Still another portion received the protein synthesis inhibiting antibiotic aminoglycoside amikacin, followed by the quinolone. Another portion received only amikacin. A final portion received neither antibiotic.
The principals exemplified in Example 1 were further confirmed with the aminoglycoside gentamicin. Briefly, the rapid test was performed on 15 isolated E. coli strains according to the methodology described above, except that gentamicinin was utilized as the protein synthesis inhibiting antibiotic. Suppressed DNA fragmentation were used to characterize bacterial susceptibility and those characterizations were verified with the standard antibiogram for gentamicin by microdilution. […]

[4] = tobramycin-resistant clinical isolate
[5] = tobramycin-susceptible TG1 strain
[6] = rapid test, confirmed by microdilution antibiogram, 12 strains for tobramycin, 15 for gentamicin

NC[C@H]1O[C@H](O[C@H]2[C@H](O)[C@@H](O[C@H]3O[C@H](CO)[C@@H](O)[C@H](N)[C@H]3O)[C@H](N)C[C@@H]2N)[C@H](N)C[C@@H]1O [tobramycin]
cell enlargement (Escherichia coli [1]; tobramycin 4 μg/ml 30 minutes followed by mitomycin C 0.5 μg/ml 60 minutes, tobramycin-resistant strain): appeared enlarged | bacterial shape and size (Escherichia coli [1]; tobramycin alone 4 μg/ml 90 minutes, both strains): does not affect bacterial shape and size | DNA fragmentation of nucleoids (Escherichia coli [2]; [4]): the DNA remained fragmented | DNA fragmentation of nucleoids (Escherichia coli [2]; [5]): nucleoids without observable DNA fragmentation | modification of nucleoids (Escherichia coli [2]; tobramycin alone 4 μg/ml 90 min, both strains): does not result in modifications of the nucleoids | E. coli strains identified as non-susceptible (resistant) (Escherichia coli [3]; [6]): three of the twelve strains as non-susceptible | E. coli strains identified as susceptible (Escherichia coli [3]; [6]): nine of the twelve strains as susceptible | DNA fragmentation of nucleoids (Escherichia coli [3]; [4]): the DNA was extensively fragmented | DNA fragmentation of nucleoids (Escherichia coli [3]; [5]): nucleoids with reduced level of DNA fragmentation | modification of nucleoids (Escherichia coli [3]; tobramycin alone 4 μg/ml 40 min, both tobramycin-susceptible and -resistant strains): did not result in any modifications of the nucleoids
